Source: US20250134103A1, “PESTICIDAL MIXTURES COMPRISING AN IS[…]” (priority 2021, published 2025)
Like-named read-outs stand apart in the source and are kept apart here.

Experiments:
Format in all cases: in vivo
[1] = tested on: yellow fever mosquito (Aedes aegypti); test: whole plant or invertebrate
Method: For evaluating control of yellow fever mosquito (Aedes aegypti) the test unit consisted of 96-well-microtiter plates containing 200 μl of tap water per well and 5-15 freshly hatched A. aegypti larvae.
The compounds or mixtures were formulated using a solution containing 75% water and 25% DMSO. Different concentrations of formulated compounds or mixtures were sprayed onto the insect diet at 2.5 μl, using a custom-built micro atomizer, at two replications.
(§1) For experimental mixtures in these tests identical volumes of both mixing partners at the desired concentrations respectively, were mixed together.
After application, microtiter plates were incubated at 28±1° C., 80±5% RH for 2 days. Larval mortality was then visually assessed. For the mixture tested the results are listed in Table 2.1 to 2.11, wherein the * marks synergistic control effect according to Colby's equation.

[2] = tested on: boll weevil (Anthonomus grandis); test: Test 4: control of boll weevil, 24-well microtiter plates with insect diet and eggs; settings: egg and larval mortality after 5 days
Method: For evaluating control of boll weevil (Anthonomus grandis) the test unit consisted of 24-well-microtiter plates containing an insect diet and 20-30 A. grandis eggs.
The compounds or mixtures were formulated using a solution containing 75% water and 25% DMSO. Different concentrations of formulated compounds or mixtures were sprayed onto the insect diet at 20 μl, using a custom-built micro atomizer, at two replications.
as §1
After application, microtiter plates were incubated at 23±1° C., 50±5% RH for 5 days. Egg and larval mortality was then visually assessed. For the mixture tested the results are listed in tables 4.1 to 4.4, wherein the * marks synergistic control effect according to Colby's equation.

[3] = tested on: tobacco budworm (Heliothis virescens); test: Test 1: control of tobacco budworm, 96-well microtiter plates with insect diet and eggs
Method: For evaluating control of tobacco budworm (Heliothis virescens) the test unit consisted of 96-well-microtiter plates containing an insect diet and 15-25 H. virescens eggs.
The compounds or mixtures were formulated using a solution containing 75% water and 25% DMSO. Different concentrations of formulated compounds or mixtures were sprayed onto the insect diet at 10 μl, using a custom-built micro atomizer, at two replications.
For experimental mixtures in these tests, identical volumes of both mixing partners at the desired concentrations respectively, were mixed together.
After application, microtiter plates were incubated at 28±1° C., 80±5% RH for 5 days. Egg and larval mortality were then visually assessed. For the mixture tested the results are listed in Tables 1.1 to 1.7, wherein the * marks synergistic control effect according to Colby's equation.

[4] = tested on: tobacco budworm (Plutella xylostella); test: Test 5: control of Plutella xylostella, 96-well microtiter plates with insect diet and eggs; settings: egg and larval mortality after 5 days
Method: For evaluating control of […] (Plutella xylostella) the test unit consisted of 96-well-microtiter plates containing an insect diet and 15-25 P. xylostella eggs.
The compounds or mixtures were formulated using a solution containing 75% water and 25% DMSO. Different concentrations of formulated compounds or mixtures were sprayed onto the insect diet at 5 μl, using a custom-built micro atomizer, at two replications.
as §1
After application, microtiter plates were incubated at 28±1° C., 80±5% RH for 5 days. Egg and larval mortality was then visually assessed.

[5] = tested on: green peach aphid (Myzus persicae); test: Test 3: control of green peach aphid through systemic means, artificial diet under membrane; settings: aphid mortality and fecundity after 3 days
Description: For evaluating control of green peach aphid (Myzus persicae) through systemic means the test unit consisted of 96-well-microtiter plates containing liquid artificial diet under an artificial membrane.
Different concentrations of formulated compounds or mixtures were pipetted into the aphid diet, using a custom built pipetter, at two replications.
as §1
After application, 5-8 adult aphids were placed on the artificial membrane inside the microtiter plate wells. The aphids were then allowed to suck on the treated aphid diet and incubated at 23±1° C. 50±5% RH for 3 days. Aphid mortality and fecundity was then visually assessed.

[6] = Aedes aegypti, 48 h, 4 ppm, larval mortality after 2 days, read-out: Average control observed (%)
[7] = 0.4 ppm, larval mortality after 2 days
[8] = 2 ppm, larval mortality after 2 days
[9] = Aedes aegypti, 48 h, 0.4 ppm, larval mortality after 2 days, read-out: Average control observed (%)
[10] = Heliothis virescens, 120 h, 0.4 ppm, egg and larval mortality after 5 days, read-out: Average control observed (%)

Compound: N#C/N=C1\SCCN1Cc1ccc(Cl)nc1 [Thiacloprid (3e), thiacloprid]
- pest or weed control at 4 ppm [1, 6]: 50%

Compound: COC(=O)N(C(=O)N1CO[C@@]2(C(=O)OC)Cc3cc(Cl)ccc3C2=N1)c1ccc(OC(F)(F)F)cc1 [Indoxacarb (12), indoxacarb]
- Average control observed (%) ([2]; 0.08 ppm): 25%
- Average control observed (%) ([1]; 0.08 ppm, larval mortality after 2 days): 0%
- Average control observed (%) [1, 7]: 0%
- Average control observed (%) [1, 8]: 0%
- Average control observed (%) ([3]; 0.4 ppm, egg and larval mortality after 5 days): 0%

Compound: CN(C(=O)c1ccccc1)c1cccc(C(=O)Nc2c(Br)cc(C(F)(C(F)(F)F)C(F)(F)F)cc2C(F)(F)F)c1F [Broflanilide (16), broflanilide]
- Average control observed (%) [1, 8]: 12.5%

Compound: Cc1c(COC(=O)[C@@H]2[C@H](/C=C(\Cl)C(F)(F)F)C2(C)C)cccc1-c1ccccc1 (racemic) [Bifenthrin (2b), bifenthrin]
- pest or weed control at 0.4 ppm [1, 9]: 25%
- pest or weed control at 0.4 ppm [3, 10]: 0%

Compound: CC1(C)[C@H](/C=C(\Cl)C(F)(F)F)[C@@H]1C(=O)O[C@@H](C#N)c1cccc(Oc2ccccc2)c1 [lamda-cyhalothrin (2e), lamda-cyhalothrin]
- Average control observed (%) ([1]; 0.16 ppm, larval mortality after 2 days): 0%
- Average control observed (%) ([3]; 0.16 ppm, egg and larval mortality after 5 days): 50%

Compound: CCOC(=O)OC1=C(c2cc(C)ccc2C)C(=O)N[C@]12CC[C@@H](OC)CC2 [Spirotetramat (13a), spirotetramat]
- pest or weed control at 80 ppm ([1]; Aedes aegypti, 48 h, 80 ppm, larval mortality after 2 days, read-out: Average control observed (%)): 0%

Compound: C/C(=N\C#N)N(C)Cc1ccc(Cl)nc1 [Acetamiprid (3d), acetamiprid]
- pest or weed control at 4 ppm [1, 6]: 0%

Compound: CN/C(=N\[N+](=O)[O-])NCc1cnc(Cl)s1 [Clothianidin (3c), clothianidin]
- pest or weed control at 1 ppm ([1]; Aedes aegypti, 48 h, 1 ppm, larval mortality after 2 days, read-out: Average control observed (%)): 0%

Compound: CC1(C)C(C=C(Cl)Cl)C1C(=O)OC(C#N)c1ccc(F)c(Oc2ccccc2)c1 (centres unmarked) [Cyfluthrin (2c), cyfluthrin]
- Average control observed (%) [1, 7]: 0%

Compound: CN/C(=N/CC1CCOC1)N[N+](=O)[O-] (centres unmarked) [Dinotefuran (3f), dinotefuran]
- pest or weed control at 4 ppm ([1]; Aedes aegypti, 48 h, read-out: Average control observed (%)): 0%
- pest or weed control at 20 ppm ([3]; Heliothis virescens, 120 h, 20 ppm, egg and larval mortality after 5 days, read-out: Average control observed (%)): 0%

Compound: CN1COCN(Cc2cnc(Cl)s2)/C1=N\[N+](=O)[O-] [Thiamethoxam (3a), thiamethoxam]
- Average control observed (%) ([2]; 0.03 ppm): 0%
- Average control observed (%) ([4]; 0.03 ppm): 0%
- pest or weed control at 0.03 ppm ([3]; Heliothis virescens, 120 h, 0.03 ppm, egg and larval mortality after 5 days, read-out: Average control observed (%)): 0%

Compound: O=C1C=C(N(Cc2ccc(Cl)nc2)CC(F)F)CO1 [Flupyradifurone (3i), flupyradifurone]
- Average control observed (%) ([5]; 2 ppm): 12.5%

Compound: spinetoram [Spinetoram (4b)]
- Average control observed (%) ([3]; 0.2 ppm, egg and larval mortality after 5 days): 0%

Compound: Cc1cc(C(F)(C(F)(F)F)C(F)(F)F)ccc1NC(=O)c1cccc(I)c1C(=O)NC(C)(C)CS(C)(=O)=O [Flubendiamide (14a), Flubendiamide]
- pest or weed control at 0.4 ppm [3, 10]: 12.5%

Compound: O=C(NCc1ncccn1)c1ccc(C2=NO[C@@](c3cc(Cl)c(F)c(Cl)c3)(C(F)(F)F)C2)c2ccncc12 [Compound I-1, 5-[(5S)-5-(3,5-dichloro-4-fluoro-phenyl)-5-(trifluoromethyl)-4H-isoxazol-3-yl]-N-(pyrimidin-2-ylmethyl)isoquinoline-8-carboxamide]
- Average control observed (%) ([5]; 0.009 ppm): 0%
- Average control observed (%) ([5]; 0.24 ppm): 0%
- Average control observed (%) ([2]; 0.048 ppm): 0%
- Average control observed (%) ([2]; 0.24 ppm): 0%
- pest or weed control at 0.009 ppm ([1]; Aedes aegypti, 48 h, 0.009 ppm, larval mortality after 2 days, read-out: Average control observed (%)): 0%
- pest or weed control at 0.048 ppm ([1]; Aedes aegypti, 48 h, 0.048 ppm, larval mortality after 2 days, read-out: Average control observed (%)): 0%
- pest or weed control at 0.24 ppm ([1]; Aedes aegypti, 48 h, 0.24 ppm, larval mortality after 2 days, read-out: Average control observed (%)): 0%
- Average control observed (%) ([4]; 0.05 ppm): 0%
- pest or weed control at 0.009 ppm ([3]; Heliothis virescens, 120 h, 0.009 ppm, egg and larval mortality after 5 days, read-out: Average control observed (%)): 0%
- pest or weed control at 0.048 ppm ([3]; Heliothis virescens, 120 h, 0.048 ppm, egg and larval mortality after 5 days, read-out: Average control observed (%)): 0%
- pest or weed control at 0.24 ppm ([3]; Heliothis virescens, 120 h, 0.24 ppm, egg and larval mortality after 5 days, read-out: Average control observed (%)): 0%

Compound: O=[N+]([O-])NC1=NCCN1Cc1ccc(Cl)nc1 [Imidacloprid (3b), imidacloprid]
- Average control observed (%) ([5]; 0.8 ppm): 0%

Compound: O=C(NC(=O)c1c(F)cccc1F)Nc1cc(Cl)c(F)c(Cl)c1F [Teflubenzuron (9), teflubenzuron]
- Average control observed (%) ([2]; 0.1 ppm): 12.5%

Compound: CCOCn1c(-c2ccc(Cl)cc2)c(C#N)c(Br)c1C(F)(F)F [Chlorfenapyr (8), chlorfenapyr]
- pest or weed control at 0.8 ppm ([1]; Aedes aegypti, 48 h, 0.8 ppm, larval mortality after 2 days, read-out: Average control observed (%)): 0%

Compound: CNC(=O)c1cc(Cl)cc(C)c1NC(=O)c1cc(Br)nn1-c1ncccc1Cl [Chlorantraniliprole (14b), Chlorantraniliprole]
- Average control observed (%) ([5]; 0.4 ppm): 0%

Compound: COc1cccc(C(=O)NN(C(=O)c2cc(C)cc(C)c2)C(C)(C)C)c1C [Methoxyfenozide (11), methoxyfenozide]
- pest or weed control at 0.4 ppm [3, 10]: 37.5%

Compound: CCN(C(=O)c1cnn(C(C)C(C)C)c1C)c1ccnnc1 (centres unmarked) [Dimpropyridaz (17b), dimpropyridaz]
- Average control observed (%) ([5]; 2 ppm): 0%

Compound: N#Cc1nn(-c2c(Cl)cc(C(F)(F)F)cc2Cl)c(N)c1[S+]([O-])C(F)(F)F (centres unmarked) [Fipronil (1b), fipronil]
- Average control observed (%) ([2]; 0.4 ppm): 12.5%
- pest or weed control at 0.4 ppm [1, 9]: 0%
- pest or weed control at 0.08 ppm ([3]; Heliothis virescens, 120 h, read-out: Average control observed (%)): 0%

Compound: CC1(C)C(C=C(Cl)Cl)C1C(=O)OC(C#N)c1cccc(Oc2ccccc2)c1 (stereo not drawn) [alpha-cypermethrin (2a), alpha-cypermethrin]
- pest or weed control at 0.4 ppm [3, 10]: 25%
